{
  "source": "patent US11382328B2",
  "about": "“Rapid drug discovery methods for pathogen inactivation” (priority 2019, dated 2022)",
  "test_system": "E. coli strain W3110",
  "test": "Synergy assays: Biolog chemical sensitivity panels with Group IB metal, coefficient of drug interaction (CDI) from relative growth",
  "assay_type": "cell-based",
  "conditions": "for CDI (coefficient of drug interaction), copper mixed with biocide: Copper (mM) section; for CDI (coefficient of drug interaction), gold + biocide: Gold (μM)",
  "key": {"[1]": {"conditions": "Silver 0.5 μM, biocide concentration 3 of 4"}, "[2]": {"conditions": "Silver 0.5 μM, biocide concentration 4 of 4"}, "[3]": {"conditions": "Silver 1.0 μM, biocide concentration 3 of 4"}, "[4]": {"conditions": "Silver 1.0 μM, biocide concentration 4 of 4"}, "[5]": {"conditions": "Silver 5.0 μM, biocide concentration 3 of 4"}, "[6]": {"conditions": "Silver 5.0 μM, biocide concentration 4 of 4"}},
  "note": "Read-outs that look alike come from different tables or passages of the source.",
  "data": [
    {"compound": "CN[C@H]1C[C@@H](N)[C@H](O)[C@@H](O[C@@H]2O[C@H](CO)[C@H](O)[C@@H]3OC4(O[C@H]23)O[C@H]([C@@H](N)CO)[C@H](O)[C@H](O)[C@H]4O)[C@@H]1O", "note": "(stereo partly drawn) [hygromycin B]", "values": [
      {"measurement": "CDI (coefficient of drug interaction), copper mixed with biocide", "setting": "1st of 3 copper concentrations (value not shown), 1st of four biocide concentrations", "result": 1.19},
      {"measurement": "CDI (coefficient of drug interaction), copper mixed with biocide", "setting": "1st of 3 copper concentrations (value not shown), 3rd of four biocide concentrations", "result": 0.89},
      {"measurement": "CDI (coefficient of drug interaction), copper mixed with biocide", "setting": "1st of 3 copper concentrations (value not shown), 4th of four biocide concentrations", "result": 0.61},
      {"measurement": "CDI (coefficient of drug interaction), copper mixed with biocide", "setting": "2nd of 3 copper concentrations (value not shown), 1st of four biocide concentrations", "result": 0.80},
      {"measurement": "CDI (coefficient of drug interaction), copper mixed with biocide", "setting": "2nd of 3 copper concentrations (value not shown), 2nd of four biocide concentrations", "result": 0.81},
      {"measurement": "CDI (coefficient of drug interaction), copper mixed with biocide", "setting": "2nd of 3 copper concentrations (value not shown), 3rd of four biocide concentrations", "result": 1.02},
      {"measurement": "CDI (coefficient of drug interaction), copper mixed with biocide", "setting": "2nd of 3 copper concentrations (value not shown), 4th of four biocide concentrations", "result": "Tox"},
      {"measurement": "CDI (coefficient of drug interaction), copper mixed with biocide", "setting": "3rd of 3 copper concentrations (value not shown), 1st of four biocide concentrations", "result": 0.91},
      {"measurement": "CDI (coefficient of drug interaction), copper mixed with biocide", "setting": "3rd of 3 copper concentrations (value not shown), 2nd of four biocide concentrations", "result": 0.79},
      {"measurement": "CDI (coefficient of drug interaction), copper mixed with biocide", "setting": "3rd of 3 copper concentrations (value not shown), 3rd of four biocide concentrations", "result": 0.77},
      {"measurement": "CDI (coefficient of drug interaction), copper mixed with biocide", "setting": "3rd of 3 copper concentrations (value not shown), 4th of four biocide concentrations", "result": 0.94},
      {"measurement": "CDI (coefficient of drug interaction)", "setting": "Gold section of Table 5, first of three gold concentrations (μM, value not given), biocide concentration 2 of 4", "result": 0.82},
      {"measurement": "CDI (coefficient of drug interaction)", "setting": "Gold section of Table 5, first of three gold concentrations (μM, value not given), biocide concentration 3 of 4", "result": "Tox"},
      {"measurement": "CDI (coefficient of drug interaction)", "setting": "Gold section of Table 5, first of three gold concentrations (μM, value not given), biocide concentration 4 of 4", "result": "Tox"},
      {"measurement": "CDI (coefficient of drug interaction)", "setting": "Gold section of Table 5, second of three gold concentrations (μM, value not given), biocide concentration 1 of 4", "result": 0.96},
      {"measurement": "CDI (coefficient of drug interaction)", "setting": "Gold section of Table 5, second of three gold concentrations (μM, value not given), biocide concentration 2 of 4", "result": 1.13},
      {"measurement": "CDI (coefficient of drug interaction)", "setting": "Gold section of Table 5, second of three gold concentrations (μM, value not given), biocide concentration 3 of 4", "result": "Tox"},
      {"measurement": "CDI (coefficient of drug interaction)", "setting": "Gold section of Table 5, second of three gold concentrations (μM, value not given), biocide concentration 4 of 4", "result": "Tox"},
      {"measurement": "CDI (coefficient of drug interaction)", "setting": "Gold section of Table 5, third of three gold concentrations (μM, value not given), biocide concentration 1 of 4", "result": 0.97},
      {"measurement": "CDI (coefficient of drug interaction)", "setting": "Gold section of Table 5, third of three gold concentrations (μM, value not given), biocide concentration 2 of 4", "result": 1.27},
      {"measurement": "CDI (coefficient of drug interaction)", "setting": "Gold section of Table 5, third of three gold concentrations (μM, value not given), biocide concentration 3 of 4", "result": "Tox"},
      {"measurement": "CDI (coefficient of drug interaction)", "setting": "Gold section of Table 5, third of three gold concentrations (μM, value not given), biocide concentration 4 of 4", "result": "Tox"},
      {"measurement": "CDI", "setting": "Silver 0.5 μM, biocide concentration 1 of 4", "result": 1.26},
      {"measurement": "CDI", "setting": "Silver 0.5 μM, biocide concentration 2 of 4", "result": 2.06},
      {"measurement": "CDI", "setting": "[1]", "result": "Tox"},
      {"measurement": "CDI", "setting": "[2]", "result": "Tox"},
      {"measurement": "CDI", "setting": "Silver 1.0 μM, biocide concentration 1 of 4", "result": 0.63},
      {"measurement": "CDI", "setting": "Silver 1.0 μM, biocide concentration 2 of 4", "result": 1.47},
      {"measurement": "CDI", "setting": "[3]", "result": "Tox"},
      {"measurement": "CDI", "setting": "[4]", "result": "Tox"},
      {"measurement": "CDI", "setting": "Silver 5.0 μM, biocide concentration 1 of 4", "result": 0.03},
      {"measurement": "CDI", "setting": "Silver 5.0 μM, biocide concentration 2 of 4", "result": 0.37},
      {"measurement": "CDI", "setting": "[5]", "result": "Tox"},
      {"measurement": "CDI", "setting": "[6]", "result": "Tox"}
    ]},
    {"compound": "Nc1ccc(S(=O)(=O)Nc2ncccn2)cc1", "note": "[sulfadiazine]", "values": [
      {"measurement": "cell toxicity / growth curves with and without silver", "result": "enhanced cell toxicity"}
    ]},
    {"compound": "hydroxylamine", "values": [
      {"measurement": "CDI (coefficient of drug interaction)", "result": 0.99}
    ]},
    {"compound": "CCCCCCCC(=O)[O-].[Na+]", "note": "[sodium caprylate]", "values": [
      {"measurement": "CDI (coefficient of drug interaction)", "setting": "Copper (mM), 1st of 3 copper concentrations (head line not shown), biocide concentration 4 of 4, E. coli", "result": "Tox"},
      {"measurement": "CDI (coefficient of drug interaction)", "setting": "Copper (mM), 2nd of 3 copper concentrations (head line not shown), biocide concentration 4 of 4, E. coli", "result": "Tox"},
      {"measurement": "CDI (coefficient of drug interaction)", "setting": "Copper (mM), 3rd of 3 copper concentrations (head line not shown), biocide concentration 4 of 4, E. coli", "result": "Tox"},
      {"measurement": "CDI (coefficient of drug interaction), gold + biocide", "setting": "first of 3 gold concentrations, biocide concentration 3 of 4", "result": "Tox"},
      {"measurement": "CDI (coefficient of drug interaction), gold + biocide", "setting": "first of 3 gold concentrations, biocide concentration 4 of 4", "result": "Tox"},
      {"measurement": "CDI (coefficient of drug interaction), gold + biocide", "setting": "second of 3 gold concentrations, biocide concentration 3 of 4", "result": "Tox"},
      {"measurement": "CDI (coefficient of drug interaction), gold + biocide", "setting": "second of 3 gold concentrations, biocide concentration 4 of 4", "result": "Tox"},
      {"measurement": "CDI (coefficient of drug interaction), gold + biocide", "setting": "third of 3 gold concentrations, biocide concentration 3 of 4", "result": "Tox"},
      {"measurement": "CDI (coefficient of drug interaction), gold + biocide", "setting": "third of 3 gold concentrations, biocide concentration 4 of 4", "result": "Tox"},
      {"measurement": "CDI", "setting": "[1]", "result": "Tox"},
      {"measurement": "CDI", "setting": "[2]", "result": "Tox"},
      {"measurement": "CDI", "setting": "[3]", "result": "Tox"},
      {"measurement": "CDI", "setting": "[4]", "result": "Tox"},
      {"measurement": "CDI", "setting": "[5]", "result": "Tox"},
      {"measurement": "CDI", "setting": "[6]", "result": "Tox"}
    ]}
  ]
}
